Assay results from ChEMBL document CHEMBL4000202, “Identification of a diverse synthetic abietane diterpenoid library for anticancer activity” (Bioorg Med Chem Lett, 2017).
The source made the active and inactive calls. The rule behind the calls is not given here.

Tests used:
A549 [1] = assay: Induction of apoptosis in human A549 cells assessed as increase in cleaved caspase-3 level after 36 hrs by Western blot method; format: functional, cell-based
SK-BR-3 = assay: Cytotoxic activity against human SKBR3 cells assessed as reduction in cell viability; format: functional, cell-based
A549 [2] = assay: Induction of apoptosis in human A549 cells assessed as early apoptotic cells at 5 uM after 36 hrs by Annexin V/propidium iodide based flow cytometric analysis (reference value: 0.5%); format: functional
HCT-116 = assay: Cytotoxic activity against human HCT116 cells assessed as reduction in cell viability; format: functional, cell-based
LNCaP = assay: Cytotoxic activity against human LNCAP cells assessed as reduction in cell viability; format: functional, cell-based
A549 [3] = assay: Induction of apoptosis in human A549 cells assessed as genomic DNA fragmentation at 5 uM after 24 hrs by FITC/DAPI staining based TUNEL assay; format: functional, cell-based
PC-3 = assay: Cytotoxic activity against human PC3 cells assessed as reduction in cell viability after 72 hrs by SRB assay; format: functional, cell-based; conditions: PC-3, 72 h
HFF = assay: Cytotoxic activity against HFF cells assessed as reduction in cell viability; format: cell-based; conditions: Homo sapiens
A549 [4] = assay: Induction of apoptosis in human A549 cells assessed as decrease in Bcl-2 level after 36 hrs by Western blot method; format: functional, cell-based
A549 [5] = assay: Induction of apoptosis in human A549 cells assessed as decrease in PARP level after 36 hrs by Western blot method; format: functional, cell-based
A549 [6] = assay: Induction of apoptosis in human A549 cells assessed as increase in cleaved PARP level after 36 hrs by Western blot method; format: functional, cell-based
MDA-MB-231 = assay: Cytotoxic activity against human MDA-MB-231 cells assessed as reduction in cell viability; format: functional, cell-based
A549 [7] = assay: Induction of apoptosis in human A549 cells assessed as increase in Bax level after 36 hrs by Western blot method; format: functional, cell-based
A549 [8] = assay: Potency index, ratio of 5-FU IC50 to compound IC50 for human A549 cells; format: functional
MCF7 = assay: Cytotoxic activity against human MCF7 cells assessed as reduction in cell viability; format: functional, cell-based
A549 [9] = assay: Induction of apoptosis in human A549 cells assessed as increase in cytochrome c level after 36 hrs by Western blot method; format: functional, cell-based
A549 [10] = assay: Induction of apoptosis in human A549 cells assessed as necrotic cells at 5 uM after 36 hrs by Annexin V/propidium iodide based flow cytometric analysis (reference value: 0.2%); format: functional
A549 [11] = assay: Effect on tubulin in human A549 cells at 1 to 100 uM after 18 hrs; format: cell-based
SK-OV-3 = assay: Cytotoxic activity against human SKOV3 cells assessed as reduction in cell viability after 72 hrs by SRB assay; format: functional, cell-based; conditions: SK-OV-3, 72 h
A549 [12] = assay: Cytotoxic activity against human A549 cells assessed as reduction in cell viability after 72 hrs by SRB assay; format: functional, cell-based; conditions: A549, 72 h
A549 [13] = assay: Induction of apoptosis in human A549 cells assessed as ROS generation at 1 to 100 uM after 18 hrs; format: functional, cell-based
A549 [14] = assay: Induction of apoptosis in human A549 cells assessed as reduction in mitochondrial membrane potential at 5 uM after 24 hrs using JC-1 dye based spectrofluorometry; format: functional, cell-based
A549 [15] = assay: Induction of apoptosis in human A549 cells assessed as late apoptotic cells at 5 uM after 36 hrs by Annexin V/propidium iodide based flow cytometric analysis (reference value: 2.3%); format: functional
L02 = assay: Cytotoxic activity against human HL7702 cells; format: cell-based

Question: How did the Activity (A549 [1]) turn out when `CCOCO[C@]12CCC[C@]3(CO1)c1ccc(C(C)C)c(OC)c1C(=O)C[C@@H]23` was run?
Answer: Its Activity is “Dose-dependent effect”.

Question: And the IC50 (SK-BR-3)?
Answer: The IC50 was 1.1 to 4.5 µM.

Question: And the Activity (A549 [2])?
Answer: Its Activity is 1.3%.

Question: And the IC50 (HCT-116)?
Answer: Its IC50 is 1.1 to 4.5 µM.

Question: And the IC50 (LNCaP)?
Answer: The IC50 was 1.1 to 4.5 µM.

Question: What about the Activity (A549 [3]) of the same molecule?
Answer: The Activity was “Active”.

Question: What about the IC50 (PC-3) of the same molecule?
Answer: Its IC50 is 2.58 µM.

Question: What about the IC50 (HFF) of the same molecule?
Answer: The IC50 was 16.1 to 22.4 µM.

Question: What about the Activity (A549 [4]) of the same molecule?
Answer: Its Activity is “Active”.

Question: And the Activity (A549 [5])?
Answer: Its Activity is “Active”.

Question: And the Activity (A549 [6])?
Answer: The Activity was “Dose-dependent effect”.

Question: What about the IC50 (MDA-MB-231) of the same molecule?
Answer: Its IC50 is 1.1 to 4.5 µM.

Question: What about the Activity (A549 [7]) of the same molecule?
Answer: The Activity was “Dose-dependent effect”.

Question: What about the “Ratio IC50” value (A549 [8]) of the same molecule?
Answer: Its value is 24.

Question: And the IC50 (MCF7)?
Answer: Its IC50 is 1.1 to 4.5 µM.

Question: What about the Activity (A549 [9]) of the same molecule?
Answer: The Activity was “Dose-dependent effect”.

Question: What about the Activity (A549 [10]) of the same molecule?
Answer: Its Activity is 1.3%.

Question: And the Activity (A549 [11])?
Answer: Its Activity is “inactive”.

Question: And the IC50 (SK-OV-3)?
Answer: The IC50 was 1.57 µM.

Question: What about the IC50 (A549 [12]) of the same molecule?
Answer: The IC50 was 1.32 µM.

Question: And the Activity (A549 [13])?
Answer: Its Activity is “inactive”.

Question: What about the Activity (A549 [14]) of the same molecule?
Answer: Its Activity is “Active”.

Question: And the Activity (A549 [15])?
Answer: The Activity was 15.8%.

Question: What about the IC50 (L02) of the same molecule?
Answer: Its IC50 is 16.1 to 22.4 µM.

Question: Which results are given for `COc1c(C(C)C)ccc2c1CC[C@H]1[C@@H]3COC(=O)[C@@H]3CC[C@]21C`?
Answer: IC50 (PC-3): > 100 µM; IC50 (SK-OV-3): > 100 µM; IC50 (A549 [12]): > 100 µM

Question: With `C=C1C(=O)CC[C@]2(C)c3ccc(C(C)C)c(OC)c3CC[C@@H]12` as the molecule, how does the IC50 (PC-3) read?
Answer: Its IC50 is 7.28 µM.

Question: What about the IC50 (SK-OV-3) of the same molecule?
Answer: The IC50 was 7.49 µM.

Question: And the IC50 (A549 [12])?
Answer: The IC50 was 9.31 µM.

Question: Which results are given for `COc1ccc(COC[C@H]2[C@H](O)CC[C@]3(C)c4cccc(OC)c4CC[C@@H]23)cc1`?
Answer: IC50 (PC-3): 3.37 µM; IC50 (SK-OV-3): 6.19 µM; IC50 (A549 [12]): 5.39 µM

Question: How did the IC50 (PC-3) turn out when `COC(=O)[C@]1(C)CCC[C@]2(C)c3ccc(C(C)C)c(OC)c3C(=O)C[C@@H]12` was run?
Answer: Its IC50 is 99.4 µM.

Question: And the IC50 (SK-OV-3)?
Answer: The IC50 was greater than 100 µM.

Question: What about the IC50 (A549 [12]) of the same molecule?
Answer: The IC50 was greater than 100 µM.

Question: How did the IC50 (PC-3) turn out when `C=CCc1ccc2c(c1O)C(=O)C[C@H]1C3=C(CC[C@]21C)C(=O)OC3` was run?
Answer: Its IC50 is 68 µM.

Question: And the IC50 (SK-OV-3)?
Answer: Its IC50 is 39.4 µM.

Question: What about the IC50 (A549 [12]) of the same molecule?
Answer: Its IC50 is 95.8 µM.

Question: Which IC50 (PC-3) does the source give for `COc1c(C(C)C)ccc2c1CC[C@H]1[C@H]3COC(=O)[C@H]3CC[C@]21C` here?
Answer: The IC50 was greater than 100 µM.

Question: What about the IC50 (SK-OV-3) of the same molecule?
Answer: The IC50 was greater than 100 µM.

Question: What about the IC50 (A549 [12]) of the same molecule?
Answer: Its IC50 is greater than 100 µM.

Question: What does the source list for `COC(=O)[C@]1(C)CCC[C@]2(C)c3ccc(C(C)C)c(OC)c3[C@@H](O)C[C@@H]12`?
Answer: IC50 (PC-3): 64.2 µM; IC50 (SK-OV-3): 51.9 µM; IC50 (A549 [12]): 85.7 µM

Question: What does the source list for `COC(=O)[C@]1(C)CCC[C@]2(C)c3ccc(C(C)C)c(N)c3CC[C@@H]12`?
Answer: IC50 (PC-3): 21.1 µM; IC50 (SK-OV-3): 37.8 µM; IC50 (A549 [12]): 35.7 µM

Question: How did the IC50 (PC-3) turn out when `COc1c(C(C)C)ccc2c1CC[C@H]1C3=C(CC[C@]21C)C(=O)OC3` was run?
Answer: The IC50 was 50.4 µM.

Question: What about the IC50 (SK-OV-3) of the same molecule?
Answer: The IC50 was 49.8 µM.

Question: And the IC50 (A549 [12])?
Answer: Its IC50 is 98.8 µM.

Question: Which IC50 (PC-3) does the source give for `COc1c(C(C)C)ccc2c1CC[C@H]1C3=C(CC[C@]21CO)C(=O)OC3` here?
Answer: The IC50 was greater than 100 µM.

Question: And the IC50 (SK-OV-3)?
Answer: Its IC50 is greater than 100 µM.

Question: And the IC50 (A549 [12])?
Answer: Its IC50 is greater than 100 µM.

Question: Which results are given for `CC(C)(C)C(=O)OC[C@H]1[C@H](O)CC[C@]2(C)c3ccccc3CC[C@@H]12`?
Answer: IC50 (PC-3): 49.2 µM; IC50 (SK-OV-3): 43.2 µM; IC50 (A549 [12]): 64.5 µM

Question: For `O=c1[nH]cc(F)c(=O)[nH]1` [FLUOROURACIL], which IC50 (PC-3) is on record?
Answer: Its IC50 is 15.3 µM.

Question: And the IC50 (SK-OV-3)?
Answer: The IC50 was 23.1 µM.

Question: And the IC50 (A549 [12])?
Answer: Its IC50 is 32.1 µM.

Question: What does the source list for `C=C1[C@@H]2CC(=O)c3c(ccc(C(C)C)c3OC)[C@@]2(C)CC[C@@]1(O)CO`?
Answer: IC50 (PC-3): 27.2 µM; IC50 (SK-OV-3): 59.6 µM; IC50 (A549 [12]): 25 µM
